Measured values: patent EP4813993A1, “COMPOUND, PREPARATION METHOD THEREFOR, AND USE THEREOF” (Sichuan Kelun Pharmaceutical Research Institute Co., Ltd., priority 2023, dated 2025)

Tests used:
incision pain model = test: Incision pain model in SD rats, Von Frey test; assay type: in vivo
Experimental: Experimental Example 7: Pharmacodynamic effect study of compounds in incision pain model in SD rats
Experimental animals: SD rats, male, 180-220 g.
(§1) Compound preparation: 5% (final preparation volume) of DMSO was added to dissolve the test compound, and then 10% (final preparation volume) of Cremophor EL and 85% Saline were sequentially added.
A plantar incision pain model was established in rats via surgery before the administration and test. Rats were placed in an anesthesia induction chamber and given 3%-4% isoflurane for anesthesia induction. After the anesthesia induction, a breathing mask was applied, and the isoflurane concentration was adjusted to 1%-2% to prevent the rats from suffering pain during the surgery. Each rat was placed in a supine position, and the surgical site was disinfected with alcohol and iodophor. Under sterile conditions, a 0.5 cm longitudinal incision was made on the left hind paw surface, 0.2 cm away from the heel, extending toward the toes. The skin and fascia were incised; the plantar muscle was separated, slightly lifted, and longitudinally incised. The skin was then sutured with 5-0 sutures and disinfected.
2. Administration and test
The Von Frey test was performed once before the surgery. On the second day after animal modeling, the test was repeated, and animals meeting the baseline requirements were selected for enrollment. The animals were randomly divided into 6 groups based on the 50% PWT values, with 10 animals per group. Administration was performed under a double-blind test protocol. The 50% PWT of the animals was measured separately before administration (baseline) and at 0.5 h, 2 h, 4 h, 6 h, or 8 h after administration, and a single dose was administered. The model control group was given normal saline, while the compound groups were given the compounds according to the administration doses in the table below.

Nav1.8 channels = target: T1, Nav1.8 channels (Homo sapiens, UniProt Q9Y5Y9); test: Manual patch-clamp, current of stably overexpressed Nav1.8 channels (resting state voltage program); assay type: cell-based
T1 construct: expressed in transfected cells
T1 sequence (Q9Y5Y9 whole entry): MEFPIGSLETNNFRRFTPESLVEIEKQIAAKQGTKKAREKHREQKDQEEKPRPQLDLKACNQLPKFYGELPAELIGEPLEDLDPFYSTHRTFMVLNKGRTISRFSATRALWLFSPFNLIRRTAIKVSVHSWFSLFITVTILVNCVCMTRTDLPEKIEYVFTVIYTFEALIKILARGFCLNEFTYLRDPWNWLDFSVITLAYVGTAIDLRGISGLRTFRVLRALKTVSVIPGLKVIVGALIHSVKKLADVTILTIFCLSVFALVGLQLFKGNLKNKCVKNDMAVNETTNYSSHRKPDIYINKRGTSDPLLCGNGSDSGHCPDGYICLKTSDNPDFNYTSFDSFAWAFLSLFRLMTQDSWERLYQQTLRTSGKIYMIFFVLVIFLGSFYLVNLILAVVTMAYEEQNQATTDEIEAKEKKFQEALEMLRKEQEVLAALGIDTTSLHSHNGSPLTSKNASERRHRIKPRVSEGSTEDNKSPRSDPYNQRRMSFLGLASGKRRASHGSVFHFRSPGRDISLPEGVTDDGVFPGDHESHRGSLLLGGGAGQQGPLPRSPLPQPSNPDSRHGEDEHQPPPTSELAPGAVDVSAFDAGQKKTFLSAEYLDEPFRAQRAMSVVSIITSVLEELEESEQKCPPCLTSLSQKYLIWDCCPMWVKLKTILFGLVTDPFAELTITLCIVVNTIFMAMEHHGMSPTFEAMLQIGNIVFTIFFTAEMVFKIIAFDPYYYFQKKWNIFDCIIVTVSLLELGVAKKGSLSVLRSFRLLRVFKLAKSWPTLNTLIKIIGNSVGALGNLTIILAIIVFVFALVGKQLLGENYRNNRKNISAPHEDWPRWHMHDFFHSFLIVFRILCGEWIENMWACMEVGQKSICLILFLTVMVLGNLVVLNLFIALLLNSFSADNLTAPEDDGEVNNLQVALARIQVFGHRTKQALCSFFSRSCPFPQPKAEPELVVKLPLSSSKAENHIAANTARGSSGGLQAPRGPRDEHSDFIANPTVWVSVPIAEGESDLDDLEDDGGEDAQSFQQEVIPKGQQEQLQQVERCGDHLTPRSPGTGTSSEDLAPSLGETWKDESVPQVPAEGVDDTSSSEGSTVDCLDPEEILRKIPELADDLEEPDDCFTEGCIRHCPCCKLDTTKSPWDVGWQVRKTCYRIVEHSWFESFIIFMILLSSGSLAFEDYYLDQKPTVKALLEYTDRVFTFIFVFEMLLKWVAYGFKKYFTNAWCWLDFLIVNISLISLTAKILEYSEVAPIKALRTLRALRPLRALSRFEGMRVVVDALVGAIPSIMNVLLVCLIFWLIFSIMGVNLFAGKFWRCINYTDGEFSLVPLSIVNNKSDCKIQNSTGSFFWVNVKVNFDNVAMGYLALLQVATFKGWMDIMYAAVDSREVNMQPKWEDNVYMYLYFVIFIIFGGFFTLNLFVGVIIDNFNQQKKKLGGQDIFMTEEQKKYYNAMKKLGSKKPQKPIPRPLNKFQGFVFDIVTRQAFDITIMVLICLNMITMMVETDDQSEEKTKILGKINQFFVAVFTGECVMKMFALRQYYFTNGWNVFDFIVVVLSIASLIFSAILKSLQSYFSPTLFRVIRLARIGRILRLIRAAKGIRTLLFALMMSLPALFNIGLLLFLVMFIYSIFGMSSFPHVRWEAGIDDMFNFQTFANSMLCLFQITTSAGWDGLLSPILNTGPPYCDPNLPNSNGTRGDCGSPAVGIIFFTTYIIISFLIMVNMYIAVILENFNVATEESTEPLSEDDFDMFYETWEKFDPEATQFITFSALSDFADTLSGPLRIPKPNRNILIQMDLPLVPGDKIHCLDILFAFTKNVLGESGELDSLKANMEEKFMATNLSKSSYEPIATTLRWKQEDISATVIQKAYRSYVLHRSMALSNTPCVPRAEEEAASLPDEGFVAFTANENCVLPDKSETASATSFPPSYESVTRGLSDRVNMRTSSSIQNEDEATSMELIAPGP
Method in brief: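 Whole-cell manual patch clamp on cells stably overexpressing Nav1.8, held at -120 mV and stepped to 0 mV for 50 ms every 20 s (resting-state protocol). Compounds were perfused in ascending concentrations, each for 5 min or until stable; block of peak current was calculated at steady state.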

[1] = Pharmacokinetic study in ICR mice; assay type: in vivo; settings: male, mouse, plasma
[2] = Tissue distribution study (dorsal root ganglia) in SD rats; assay type: in vivo; settings: male, rat, oral administration 10 mg/kg
Experimental: Experimental Example 5: Tissue distribution study of compounds in SD rats
Experimental animals: SD rats, male, 6-8 weeks old.
as §1
Experimental design: The test compounds were administered to SD rats as a single dose via oral administration (10 mg/kg; n = 3, 3 time points). Blood samples were collected at 0.5 h, 2 h, and 6 h after oral administration, followed by sacrifice of the animals. Dorsal root ganglia were collected, rinsed with ice-cold normal saline to remove residual blood, blotted dry with absorbent paper, and stored at -70 °C for analysis.
Sample test: The concentrations of the designated compound drugs in plasma and tissues were determined by the LC-MS/MS method.

In the case of `COc1c(C2CC(C)(C(F)(F)F)SC2C(=O)Nc2ccnc(C(N)=O)c2)ccc(F)c1F` (single isomer, unassigned) [Compound 139-A, 4-(3-(3,4-difluoro-2-methoxyphenyl)-5-methyl-5-(trifluoromethyl)tetrahydrothiophene-2-carboxamido)picolinamide], the “analgesic activity compared with VX-548” value (incision pain model; SD rats incision pain model, at the same dose) is reported as “better analgesic activity than VX-548”, the “PWT 50% value (g) Post-surgery, Preadministration” value (incision pain model; SD rats, 125 mg/kg group, baseline before administration, Mean + SEM, n = 10) is reported as 3.95 ± 1.12 g and the “PWT 50% value (g) Pre-surgery” value (incision pain model; SD rats, 125 mg/kg group, baseline before surgery, Mean + SEM, n = 10) is reported as 14.4 ± 1.27 g. The “PWT 50% value (g) Time 0.5 h” value (incision pain model; SD rats, 125 mg/kg single dose, 0.5 h after administration, Mean + SEM, n = 10) was 7.46 ± 3.86 g, the “PWT 50% value (g) Time 2 h” value (incision pain model; SD rats, 125 mg/kg single dose, 2 h after administration, Mean + SEM, n = 10) was 10.11 ± 3.83 g and the “PWT 50% value (g) Time 6 h” value (incision pain model; SD rats, 125 mg/kg single dose, 6 h after administration, Mean + SEM, n = 10) was 6.28 ± 2.28 g. The “PWT 50% value (g) Time 8 h” value (incision pain model; SD rats, 125 mg/kg single dose, 8 h after administration, Mean + SEM, n = 10) was 6.29 ± 2.6 g, the “PWT 50% value (g) AUC0-8h” value (incision pain model; SD rats, 125 mg/kg single dose, Mean + SEM, n = 10) was 60.47 ± 11.72 g and the dose-effect relationship (incision pain model; rat incision pain model) was “relatively good dose-effect relationship”. The IC50 (Nav1.8 channels) was 0.06 nM, the Inhibition rate (%) (Nav1.8 channels; concentration of 10 nM, 0.01 µM) was 95.31% and the AUC(0-inf) ([1]; Oral administration (p.o.), 20 mg/kg) was 24800 ng·h/mL. The AUC(0-inf) ([1]; iv, Injection (i.v.), 2 mg/kg) was 3080 ng·h/mL, the concentration at 0.5 h ([2]; Time 0.5 h) was 1070 ng/g and the concentration at 2 h ([2]; Time 2 h) was 973 ng/g. It also gave a concentration at 6 h ([2]; Time 6 h) of 549 ng/g.
